This is an account of results in ChEMBL document CHEMBL4354864, “Bicyclic α-Iminophosphonates as High Affinity Imidazoline I2 Receptor Ligands for Alzheimer's Disease” (J Med Chem, 2020).

Structures are written as SMILES. Converted amounts (≈) assume the structure as drawn. The source made the active and inactive calls. The rule behind the calls is not given here.

For data set [1], the system named is HeLa. Nature of the data set: Cytotoxicity against human HeLa cells assessed as effect on cell morphology at 100 uM incubated for 3 to 5 days by microscopic analysis. Type of data set: cell-based.
For data set [2], the system named is Mus musculus. Nature of the data set: Antineuroinflammatory activity in mouse model of 5xFAD assessed as effect on iNOS expression at 5 mg/kg, po administered for 4 weeks by qRT-PCR analysis. Format: functional, organism-based. A general note: Quantitative PCR measures a nucleic acid by following its amplification.
A short description of data set [3]: Solubility of compound in 99% PBS buffer incubated for 2 hrs by nephelometry. Type of data set: physicochemical.
A short description of data set [4]: Stability in rat liver microsomes at 5 uM incubated for 60 mins by UPLC-MS/MS analysis. Format: ADME, Microsome. The settings on record: 1 h.
For data set [5], the target named is T1, Gastrin/cholecystokinin type B receptor (Homo sapiens, UniProt P32239).
T1 sequence (P32239 whole entry): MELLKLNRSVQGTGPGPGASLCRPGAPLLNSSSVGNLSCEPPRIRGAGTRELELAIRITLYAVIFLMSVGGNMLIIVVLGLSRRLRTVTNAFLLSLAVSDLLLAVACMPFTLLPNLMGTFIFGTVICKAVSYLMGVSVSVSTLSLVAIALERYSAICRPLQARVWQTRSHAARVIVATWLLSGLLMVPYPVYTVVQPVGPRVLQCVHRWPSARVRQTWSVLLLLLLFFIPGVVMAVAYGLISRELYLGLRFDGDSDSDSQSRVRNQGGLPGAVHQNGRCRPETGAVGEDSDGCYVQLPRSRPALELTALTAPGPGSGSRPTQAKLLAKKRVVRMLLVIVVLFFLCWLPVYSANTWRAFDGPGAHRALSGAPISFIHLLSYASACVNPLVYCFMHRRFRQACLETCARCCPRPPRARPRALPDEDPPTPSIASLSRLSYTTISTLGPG
Nature of the data set: Displacement of [125I]CCK-8s from human CCKB incubated for 60 mins by scintillation counting method.

Data set [6] addresses Cytochrome P450 2C9 (Homo sapiens, UniProt P11712). Nature of the data set: Inhibition of recombinant human CYP2C9 at 10 uM using 7-methoxy-4-(trifluoromethyl)coumarin as substrate incubated for 5 mins followed by substrate addition by fluorescence based assay. Conditions: recombinant enzyme. Format: ADME.
For data set [7], the system named is Mus musculus. Put plainly: Antineuroinflammatory activity in mouse model of 5xFAD assessed as reduction in Cxcl10 expression at 5 mg/kg, po administered for 4 weeks by qRT-PCR analysis. Type of data set: functional, organism-based.
Data set [8] can be described thus: Displacement of [3H]2-BFI from I2IR in Sprague-Dawley rat brain cortex incubated for 45 mins by liquid scintillation spectrometry. A general note: In a radioligand displacement assay an active substance lowers the binding of a labelled ligand.
Data set [9] concerns Mus musculus. Put plainly: Antineuroinflammatory activity in mouse model of 5xFAD assessed as effect on Hmox1 expression at 5 mg/kg, po administered for 4 weeks by qRT-PCR analysis. Type of data set: functional, organism-based.
Data set [10] has as its system HeLa. Nature of the data set: Cytotoxicity against human HeLa cells assessed as reduction in cell viability at 100 uM incubated for 3 to 5 days by colorimetric analysis. Type of data set: cell-based.
Data set [11] has as its system MDCK. Put plainly: Cytotoxicity against dog MDCK cells assessed as reduction in cell viability at 100 uM incubated for 3 to 5 days by colorimetric analysis. Format: cell-based, Canis lupus familiaris.
Data set [12] concerns Mus musculus. Put plainly: Effect on FADD in CD-1 mouse at 20 mg/kg, ip measured after 1 hr by Westernblot analysis. Type of data set: functional.
Data set [13] is described as follows: Effective permeability of compound by PAMPA-BBB assay. Format: ADME. The settings on record: read-out: Peff. On the technique in general: In PAMPA a lipid-coated filter parts donor from acceptor wells.
For data set [14], the system named is Mus musculus. Put plainly: Cognitive enhancing effect in mouse model of 5xFAD assessed as increase in recognition memory at 5 mg/kg, po administered for 28 days and measured after 24 hrs of last dosage by novel object recognition test. Type of data set: functional, organism-based.

Chain of Cytochrome P450 2C9 (P11712 whole entry): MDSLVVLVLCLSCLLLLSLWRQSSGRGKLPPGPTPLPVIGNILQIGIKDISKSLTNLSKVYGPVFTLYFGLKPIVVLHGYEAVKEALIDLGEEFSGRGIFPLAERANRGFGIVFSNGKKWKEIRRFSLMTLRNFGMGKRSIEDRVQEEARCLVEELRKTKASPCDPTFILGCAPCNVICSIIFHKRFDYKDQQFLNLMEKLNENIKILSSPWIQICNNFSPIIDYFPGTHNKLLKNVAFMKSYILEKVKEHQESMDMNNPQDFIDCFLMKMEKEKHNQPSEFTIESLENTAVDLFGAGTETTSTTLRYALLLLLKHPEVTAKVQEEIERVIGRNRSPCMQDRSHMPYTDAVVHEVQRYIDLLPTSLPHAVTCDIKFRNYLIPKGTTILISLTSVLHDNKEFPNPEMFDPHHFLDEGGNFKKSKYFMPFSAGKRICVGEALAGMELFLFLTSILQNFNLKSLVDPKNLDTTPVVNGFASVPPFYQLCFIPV

With `CCOP(=O)(OCC)C1(c2ccccc2)N=CC2C(=O)N(c3ccc(F)c(Cl)c3)C(=O)C21` (racemic), the Activity result in data set [1] is given as “Non-Toxic”; in data set [10] it was “Non-Toxic”; in data set [11], “Non-Toxic”; in data set [12] it was -30%. Besides, the result in data set [2], in data set [7], in [9] and in data set [14] was Active. The same compound displayed a solubility (kinetic) at 2 h in [3] of 92 µM (≈ 44.1 µg/mL). Moreover, the Stability result in [4] is on record as “Stable”. In [5], the IC50 is greater than 10 µM. For the same compound, in data set [6], the “inhibition (INH)” value is “Not Active”. Moreover, the pKi in data set [8] was 6.92. Also, the Papp in data set [13] stood at 9.7 ×10⁻⁶ cm/s.

Broadly, the solubility (kinetic) is solubility judged after dilution from a stock solution rather than from solid. The term IC50 denotes the concentration that gives 50% inhibition. By pKi is commonly meant the negative decadic logarithm of the Ki, by convention in mol/L. Read a high pKi as a small Ki.
